In US10076527B2, “Standardized extract and its use in the manufacture of a medicament” (priority 2006, dated 2018):

What was measured:
[1] = test system: isolated guinea pig ileum; settings: concentration of 54 mg/ml; cited from earlier work
conscious cats = settings: intravenous injection; cited from earlier work
anesthetized dogs = settings: intravenous injection; cited from earlier work
conscious dogs = settings: intravenous injection; cited from earlier work
[2] = test system: mice with gastrointestinal hypo-function induced by atropine; assay: Intestine enterokinesia in mice with gastrointestinal hypo-function induced by atropine; assay type: in vivo, ICR mice; settings: extract high dose rectal; Neostigmine 0.15 mg/kg hypodermic
Experimental: In this experiment, 66 male ICR mice weighing 22-26 g respectively were divided randomly into 6 groups with 11 per group. They were fasted for 24 hours before the experiment. The 6 groups were named as: • Normal control group, • Model group, • Positive control group, and • The three dose groups.
The mice in the normal control group were only injected saline at 0.1 ml/10 g and mice in all other groups were injected 0.25 mg/kg of Atropine hypodermic at 0.1 ml/10 g body weight.
Twenty minutes after injection Muskmelon-Base extract (diluted with the saline) was given to the mice at the doses of […] by rectal administration and saline solution was given to the mice in normal, control and the model groups. Neostigmine hypodermic injection (0.15 mg/kg) was given to the mice in the positive control group at the dose 0.1 ml/10 g body weight. A further 20 minutes later, an intragastric administration of 10% ink was given to all the mice at the dose 0.2 ml/10 g body weight.
All the mice were killed and laparotomized in 90 minutes. The intestine from the pylorus to the anus was taken out to measure the whole length of the alimentary tract. The distance from the pylorus to the front the ink impelled was measured to calculate the impelling percentage.

normal mice = assay: Excretion promotion study in normal mice (India ink); assay type: in vivo, ICR mice; settings: positive control, hypodermic injection 0.1 ml/10 g, p<0.01
Experimental: In this experiment, 50 male ICR mice weighing 23-27 g respectively were divided randomly into 5 groups with 10 per group, i.e. normal control, positive control and three dose groups at 2.48 mg/kg, 4.96 mg/kg and 9.92 mg/kg, respectively. They were fasted for 24 hours before the experiment.
The mice in the positive control group were given an injection of 0.1 ml/10 g body weight of Neostigmine hypodermically while the mice in the normal control groups were given rectal administrations of saline of 0.02 ml/10 g body weight. The mice in the three dose groups were given rectal administrations of the Muskmelon-Base extract (diluted with saline to give desired doses and given 0.02 ml/10 g body weight).
After medication, all the mice were intra-gastrically given infusions of India ink (10% ink, diluted with saline, at the dose 0.02 ml/10 g of body weight). The mice were individually put into a cage with white filter paper flooring. The time of excretion and quantity of the feces were recorded during 4-hour observation periods.

| Compound | effect on isolated guinea pig ileum [1] | diarrhea (conscious cats) | enterokinesia (anesthetized dogs) | diarrhea (conscious dogs) | muscle spasm side effect [2] | quantity of the feces increased vs normal control (normal mice; 4-hour observation) [%] | duration for the first excretion of black feces shortened vs normal control (normal mice) [%] |
| --- | --- | --- | --- | --- | --- | --- | --- |
| CC(C)(O)/C=C/C(=O)[C@](C)(O)[C@H]1[C@H](O)C[C@@]2(C)[C@@H]3CC=C4[C@@H](C[C@H](O)C(=O)C4(C)C)[C@]3(C)C(=O)C[C@]12C [Cucurbitacin D] | did not cause any visible effect | induced diarrhea | stimulated enterokinesia | induced diarrhea |  |  |  |
| CN(C)C(=O)Oc1cccc([N+](C)(C)C)c1 [Neostigmine] |  |  |  |  | always found in all mice | 49 | 53 |
